In publication PMC6272854, “Two New Bioactive α-Pyrones from Hypericum japonicum” (Molecules, 2016):

Tests used:
[1] = system: Kaposi's sarcoma associated herpesvirus (KSHV) lytic replication; assay: in vitro; assay type: cell-based; conditions: human; CC50 (iSLK.219 cells) / IC50 (KSHV lytic replication); read-out: Selective Index (CC50/IC50)
Excerpt: (§1) Human gamma herpes viruses such as Kaposi’s sarcoma-associated herpes virus (KSHV) is a type of pathogenic virus related to Kaposi’s sarcoma, like epidemic KS, posttransplant KS, multicentric Castleman’s disease, and primary effusion lymphoma. Anti-infection towards lytic replication of KSHV plays a pivotal role as decreased a risk of KS, which were evidenced in cases of AIDS-associated epidemic KS patients. In our exhaustive study to explore bioactivities of metabolites, an inhibition assay on lytic replication of KSHV was investigated for compounds 1 and 2 referring to the previous experiments. […] The details of the dose-dependent manner were shown in Figure S1, Supplementary Materials. More elaborate procedures of anti-KSHV assay were also stated in Supplementary Materials.
(§2) Figure 5 The effects of positive control cidofovir (CDV), 1 and 2 on human iSLK.219 cells viabilities and on lytic replication of KSHV infecting Vero cells were measured in vitro.
(§3) Human iSLK.219 cells were used to determine the antiviral activity of desired compounds against KSHV. The cells harbor the rKSHV.219 virus that encodes green fluorescent protein (GFP) under control of the elongation factor 1α promoter (EF-1α) and lytic replication of KSHV was reactivated with 1 µg/mL doxycycline (Dox) (Beyotime) and 1.2 mM sodium butyrate (NaB) (Sigama). Cells grown to 70% confluence 96-well tissue culture plates were treated with indicated concentrations of compounds in present of Dox and NaB. Then cell viability was assessed at 48 h post drugs-induction by AlamarBlue® Cell Viability Assay (Invitrogen) according to the manufacturer’s protocol. The luminescent signal was measured using the Envison 2102 Multilabel Reader (Perkin Elmer, Waltham, MA, USA). The 50% cytotoxic concentration (CC50) for each compound was calculated from these dose-response curves using Graphpad5.0 Prism. The results were presented as mean values with standard deviations (n = 3) […]
(§4) The antiviral effects of compounds on KSHV were determined by infectivity assay as previously described. The supernatants from iSLK.219-treated or untreated with the compounds in the presence of Dox and NaB were collected at 48 h. Then, the supernatants were used to infect the Vero cells seeded in a 96-well plate as previously reported using centrifugation at 1500× g for 60 min [4]. The supernatants were then removed and replaced with flash DMEM medium. At 48 h, the expression of GFP per well in Vero cells was detected and analyzed using the Operetta High-Content Screening System (HCS) (Perkin Elmer). Nine image fields per well were recorded by the automated microscope based HCS and the GFP intensity per well was calculated using the Harmony 3.5 software (Perkin Elmer). Data were normalized as the fold change compared to the DMSO control. The IC50 (50% effective concentration) values correspond to compound concentrations required to reduce quantitative expression of the intensity of GFP by 50%. The results are presented as the mean values with […]
(§5) Figure S1. HRESIMS spectrum of japopyrone A (1).

[2] = system: Kaposi’s sarcoma associated herpesvirus (KSHV); assay: microbe, parasite or virus in culture; assay type: cell-based; conditions: Human gammaherpesvirus 8, Vero, 48 h
Excerpt: as §1, §2, §3, §4, §5

[3] = Cell viability of iSLK.219 cells (AlamarBlue Cell Viability Assay); assay type: cell-based; conditions: iSLK.219 cells harbouring rKSHV.219 virus, human iSLK.219 cells, in presence of Dox and NaB
Method: as §2, §3
as §4, with “control.” for “control. The IC50 (50% effective concentration) values correspond to compound concentrations required to reduce quantitative expression of the intensity of GFP by 50%. The results are presented as the mean values with”

[4] = Cytotoxicity assay against human cancer cell line HL-60; assay type: cell-based; conditions: HL-60 cells
Excerpt: (§6) Natural products have provided a rich resource for the discovery of new drugs, innovative therapeutic agents, and lead structures. In our studious research towards the discovery for new lead compounds and useful bioactivities from Chinese traditional herbs, several bioactivity screenings such as cytotoxicity assays against five human cancer cell lines (HL-60, SMMC-7721, A-549, MCF-7, and SW480), inhibitory activities on NO production, and inhibitory activities on β-site amyloid precursor protein cleaving enzyme 1 (BACE1), were carried out for compounds 1 and 2.

[5] = Cytotoxicity assay against human cancer cell line SMMC-7721; assay type: cell-based; conditions: SMMC-7721 cells
Excerpt: as §6

[6] = Cytotoxicity assay against human cancer cell line A-549; assay type: cell-based; conditions: A-549 cells
Excerpt: as §6

[7] = Cytotoxicity assay against human cancer cell line MCF-7; assay type: cell-based; conditions: MCF-7 cells
Excerpt: as §6

[8] = Cytotoxicity assay against human cancer cell line SW480; assay type: cell-based; conditions: SW480 cells
Excerpt: as §6

[9] = system: NO production; assay: NO production inhibition assay; assay type: cell-based
Excerpt: as §6

[10] = biological target: β-site amyloid precursor protein cleaving enzyme 1 (BACE1) (Homo sapiens, UniProt P56817); assay: BACE1 inhibition assay; assay type: biochemical
Chain of β-site amyloid precursor protein cleaving enzyme 1 (BACE1) (P56817 22-501 limits assumed, species assumed): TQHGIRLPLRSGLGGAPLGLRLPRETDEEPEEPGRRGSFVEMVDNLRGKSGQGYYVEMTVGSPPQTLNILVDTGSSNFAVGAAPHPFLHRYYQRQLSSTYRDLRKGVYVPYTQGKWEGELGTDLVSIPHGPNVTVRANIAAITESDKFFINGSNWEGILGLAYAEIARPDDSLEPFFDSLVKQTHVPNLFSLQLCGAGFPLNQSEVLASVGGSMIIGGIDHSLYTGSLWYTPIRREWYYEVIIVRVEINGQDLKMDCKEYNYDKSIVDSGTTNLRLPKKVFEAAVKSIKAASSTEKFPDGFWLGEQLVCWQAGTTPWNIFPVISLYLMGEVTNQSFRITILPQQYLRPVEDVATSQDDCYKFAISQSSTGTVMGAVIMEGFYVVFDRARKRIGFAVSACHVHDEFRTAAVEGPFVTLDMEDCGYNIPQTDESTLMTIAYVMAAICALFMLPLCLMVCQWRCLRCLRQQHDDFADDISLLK
Excerpt: as §6

| Compound | selectivity ratio at 48 h [1] | IC50 [2] [µM] | CC50 at 48 h [3] [µM] | IC50 [4] [µM] | IC50 [5] [µM] | IC50 [6] [µM] | IC50 [7] [µM] | IC50 [8] [µM] | IC50 [9] [µM] | IC50 [10] [µM] |
| --- | --- | --- | --- | --- | --- | --- | --- | --- | --- | --- |
| Nc1ccn(C[C@@H](CO)OCP(=O)(O)O)c(=O)n1 [CDV, cidofovir, reference compound] | > 250 | < 0.004 | > 1 | – | – | – | – | – | – | – |
| COc1cc(-c2cc3c(c(=O)o2)C(C)(C)[C@H](C)O3)ccc1O [Compound 1, japopyrone A] | > 2.34 | 85.3 | > 200 | > 40 | > 40 | > 40 | > 40 | > 40 | > 25 | > 40 |
| COc1ccc(-c2cc3c(c(=O)o2)C(C)(C)[C@H](C)O3)cc1OC [Compound 2, japopyrone B] | > 6.79 | 29.5 | > 200 | > 40 | > 40 | > 40 | > 40 | > 40 | > 25 | > 40 |
